Columns and labels:
[1] = test system: chick chorioallantoic membrane; assay: Chick chorioallantoic membrane (CAM) angiogenesis assay; assay type: in vivo
Protocol: The chick chorioallantoic or yolk sac membrane (CAM) assays for angiogenesis are important in vivo models of microvessel formation. […] Briefly, fertilized chick embryos with the yolk intact were removed from their shells on day 3 of development and incubated at 37° C.

MMP-2 = assay: Northern blot analysis of MMP-2 expression in HUVECs; assay type: cell-based, human; settings: bFGF 10 ng/mL alone, 24 hr
Protocol: (§1) Human umbilical vein endothelial cells (H 930) were generously supplied by Dr. Tom Maciag, American Red Cross (Gaithersburg, Md., USA) and were used between passages 9 and 14 to avoid senescence. HUVECs were grown on fibronectin-coated tissue culture plastic (200 μg/150 mm dish) in complete medium (Medium 199 (M-199) containing 5 U/mL preservative-free heparin, 25.5 μg/mL ECGS, 10% fetal bovine serum and 100 U/mL penicillin, 100 μg/mL streptomycin, and 0.25 μg/mL fungizone).
(§2) HUVECs were grown to confluence as described. Fresh complete medium with test compounds was added to confluent cells for an additional 24 hr incubation. bFGF (10 ng/mL), and/or compound 1 (10 μM) or DMSO control (0.1%) were added as indicated below. Total RNA was isolated by the guanidine isothiocyanate/CsCl method. Aliquots of RNA (7.5 μg) were separated on 1% agarose/formaldehyde gels, passively transferred to GeneScreen Plus membrane in 20X SSC, then cross-linked with ultraviolet light. Blots were prewashed for 1 hr at 42° C. in 1M NaCl, 10 mM Tris, 1 mM EDTA, 0.1% SDS and then hybridized overnight at 42° C. with a formamide-containing buffer (hybridization buffer final: 50% formamide, 4X SSC, 10 mM Tris pH 7.5, IX Denhardt solution, 0.2% SDS, 125 μg/ml salmon sperm DNA) with a random-primed 300 bp insert for MMP-2 (gift of Dr. William Stetler-Stevenson, Laboratory of Pathology, NCI). Blots were washed under stringent conditions then exposed to film. After removal of MMP-2 probe, blots were rehybridized with β-actin probe for quantitation of the RNA load. Results were quantitated by densitometric evaluation of the autoradiographs.
(§3) Lane 1 corresponds to the mRNA from HUVECs treated with DMSO (control). Lanes 2-4 show the mRNA isolated from HUVECs treated with compound 1 (10 μM) alone, compound 1 (10 μM) and bFGF (10 ng/mL), bFGF (10 ng/mL) alone, respectively.

β-actin = assay: Northern blot, β-actin probe for quantitation of RNA load in HUVECs; assay type: cell-based, human; settings: bFGF 10 ng/mL alone, 24 hr
Protocol: as §1, §2, §3

[2] = positive control, 60μ (text: 60 μg)

## NC(=O)c1nc[nH]c1N [AIC, aminoimidazole carboxamide, reference compound]
[1]; 10 μM, 48 hr
  % Inhibition (capillary formation in vivo): 16%
  Eggs with avascular zones/total: 4/24
[1]; 10 or 20 μM, 48 hr
  angiogenesis inhibitory effect (in words): inactive

## C[C@]12CCC(=O)C=C1CC[C@@H]1[C@@H]2[C@@H](O)C[C@@]2(C)[C@H]1CC[C@]2(O)C(=O)CO [Hydrocortisone, hydrocortisone, reference compound]
[1]; [2]
  % Inhibition (capillary formation in vivo): 55%
  Eggs with avascular zones/total: 10/18

## bFGF: Recombinant basic fibroblast growth factor (bFGF)
MMP-2
  Corrected values (MMP-2 mRNA corrected for loading): 0.37
  MMP-2 (densitometer): 77 Densitometer units
β-actin
  β-actin (densitometer): 205 Densitometer units

From patent publication US5744492A, “Method for inhibiting angiogenesis” (United States of America, priority 1994, dated 1998)
